For one assay, the target named is T1, human ACC2 (Nd) (Homo sapiens, UniProt O00763).
T1 construct: His6 (from vector pFAST-BacHTa); made in house; host or cells: SF-9 insect cells, recombinant baculovirus BAC-ACC2 (Nd)
The experiment in a line: ACC2 inhibitory activity (malachite green). Conditions: test compound 10 μM; for inhibition at 10 µM: read-out: ACC2 10 μM inhibitory rate (%). Type of assay: biochemical. On the procedure: The ACC2 inhibitory action of the compound of the present invention was evaluated by the following method.
(1) Cloning of Human ACC2 Gene and Preparation of Recombinant Baculovirus
Human ACC2 gene was cloned by PCR using a human skeletal muscle cDNA library (Clontech) as a template and Primer 1 and Primer 2 shown below. Primer 1 and Primer 2 were prepared by adding SalI, XbaI restriction enzyme recognition sequences based on the information of the base sequence of human ACC2 gene (Genbank Accession U89344).
PCR was performed using Pyrobest DNA polymerase (TAKARA BIO INC.). The obtained PCR product was cloned to pT7 Blue vector (Novagen) and, after confirmation of the base sequence, digested with restriction enzymes SalI and XbaI. The obtained DNA fragment was inserted into pFAST-BacHTa (Invitrogen) digested with restriction enzymes SalI and XbaI to give expression plasmid ACC2/pFAST-BacHTa.
A plasmid for expression of ACC2 without a mitochondrial targeting sequence was prepared by PCR using the expression plasmid as a template, and Primer 3 (SalI restriction enzyme recognition sequence was added) and Primer 4 prepared by reference to the information of human ACC2 gene base sequence (Genbank Accession U89344).
PCR was performed using Pyrobest-DNA polymerase (TAKARA BIO INC.). The obtained PCR product was cloned to pT7 Blue vector (Novagen) and, after confirmation of the base sequence, digested with restriction enzymes SalI and AflII. The obtained DNA fragment was inserted into ACC2/pFAST-BacHTa digested with restriction enzymes SalI and AflII to give expression plasmid ACC2mito7/pFAST-BacHTa.
Using the expression plasmid ACC2mito7/pFAST-BacHTa and BAC-TO-BAC Baculovirus Expression System (Invitrogen), virus stock BAC-ACC2 of recombinant Baculovirus (N terminal deleted (hereinafter Nd)) was prepared.
(2) Preparation of ACC2 (Nd) Protein
SF-9 cells (Invitrogen) were inoculated to a medium (2 L) for insect cells (Sf-900IISFM medium (Invitrogen) containing 10% fetal bovine serum (Trace), 50 mg/L Gentamicin (Invitrogen), 0.1% Pluronic F-68 (Invitrogen)) at 0.5×10^6 cells/mL, and cultured with shaking in Wave Bioreactor (Wave) at 27° C., 20 rpm, rocking angle 6°, oxygen concentration 30%.
On day 4 of the culture, 3 L of the medium for insect cells was added, the rocking angle was set to 8°, and the cells were cultured. On day 5 of the culture, 100 ml of recombinant Baculovirus BAC-ACC2 (Nd) was added, 5 L of the medium for insect cells was further added, the rocking angle was set to 11°, and the cells were cultured for 3 days. The culture medium was centrifuged at 1000×g for 10 min to give virus-infected cells. The cells were washed with phosphate buffered saline (Invitrogen) and centrifuged under the same conditions. The obtained cells were cryopreserved at −80° C.
The cryopreserved cells were thawed in ice and suspended in 900 ml of 25 mM HEPES buffer (pH 7.5) containing 10% Glycerol, 0.13 M NaCl, 1 mM EDTA, 25 mM Sodium β-Glycerophosphate and 1 mM Sodium Orthovanadate, and supplemented with Complete Protease Inhibitor (Nippon Boehringer Ingelheim Co., Ltd.). The obtained suspension was homogenized three times in a polytron homogenizer (Kinematica) at 20,000 rpm for 30 sec. The obtained cell disruption solution was clarified by centrifugation at 31000×g for 60 min, and filtered through a 0.45 μm filter. The filtrate was passed through a column packed with 60 mL of Ni-NTA Super Flow Gel (QUIAGEN) at a flow rate of about 5 mL/min. The column was washed with buffer A (50 mM HEPES (pH 7.5) containing 0.3 M NaCl), further washed with buffer A containing 20 mM Imidazole, and eluted with buffer A containing 100 mM Imidazole. The eluate was concentrated with Vivaspin 20 (Vivascience) with a molecular weight cut off of 30K. The obtained concentrate was dialyzed against 50 mM HEPES (pH 7.5) containing 10 mM MgCl2, 2 mM Dithiothreitol, 10 mM Tripotassium Citrate and 0.3 M NaCl. The inner dialysate was filtered through a 0.22 μm filter to give ACC2 (Nd). […]

Another assay concerns the target T2, human ACC1 (Homo sapiens, UniProt Q13085).
T2 construct: His6 (from vector pFAST-BacHTc); made in house; host or cells: SF-9 insect cells, recombinant baculovirus BAC-ACC1
Kind of assay: ACC1 inhibitory activity (malachite green). Type of assay: biochemical. Conditions: test compound 10 μM; for inhibition at 10 µM: read-out: ACC1 10 μM inhibitory rate (%). The protocol:
The ACC1 inhibitory action of the compound of the present invention was evaluated by the following method.
(1) Cloning of Human ACC1 Gene and Preparation of Recombinant Baculovirus
Human ACC1 gene was cloned by PCR using a human liver cDNA library (Clontech) as a template and Primer 1 and Primer 2 shown below. Primer 1 and Primer 2 were prepared by adding SalI, NotI restriction enzyme recognition sequences based on the information of the base sequence of human ACC1 gene (Genbank Accession U19822).
PCR was performed using Pyrobest DNA polymerase (TAKARA BIO INC.). The obtained PCR product was cloned to pT7 Blue vector (Novagen) and, after confirmation of the base sequence, digested with restriction enzymes SalI and NotI. The obtained DNA fragment was inserted into pFAST-BacHTc (Invitrogen) digested with restriction enzymes SalI and NotI to give expression plasmid ACC1/pFAST-BacHTc.
Using the expression plasmid ACC1/pFAST-BacHTc and BAC-TO-BAC Baculovirus Expression System (Invitrogen), virus stock BAC-ACC1 of recombinant Baculovirus was prepared.
(2) Preparation of ACC1 Protein
SF-9 cells (Invitrogen) were inoculated to a medium (1 L) for insect cells (Sf-900IISFM medium (Invitrogen) containing 10% fetal bovine serum (Trace), 50 mg/L Gentamicin (Invitrogen), 0.1% Pluronic F-68 (Invitrogen)) at 1×10^6 cells/mL, and cultured with shaking in 2 L meyer at 27° C., 100 rpm.
After 24 hr of the culture, 10 mL of recombinant Baculovirus BAC-ACC1 was added, and the cells were cultured for 3 days. The culture medium was centrifuged at 1000×g for 5 min to give virus-infected cells. The cells were washed with phosphate buffered saline (Invitrogen) and centrifuged under the same conditions. The obtained cells were cryopreserved at −80° C.
The cryopreserved cells were thawed in ice and suspended in 100 mL of 25 mM HEPES buffer (pH 7.5) containing 10% Glycerol, 0.13 M NaCl, 1 mM EDTA, 25 mM Sodium […] and 1 mM Sodium Orthovanadate, and supplemented with Complete Protease Inhibitor (Nippon Boehringer Ingelheim Co., Ltd.). The obtained suspension was homogenized three times in a polytron homogenizer (Kinematica) at 20,000 rpm for 30 sec. The obtained cell disruption solution was clarified by centrifugation at 185700×g for 50 min, and filtered through a 0.45 μm filter. The filtrate was passed through a column packed with 12 ml of Ni-NTA Super Flow Gel (QUIAGEN) at a flow rate of about 5 mL/min. The column was washed with buffer A (50 mM HEPES (pH 7.5) containing 0.3 M NaCl), further washed with buffer A containing 20 mM Imidazole, and eluted with buffer A containing 100 mM Imidazole. The eluate was concentrated with Vivaspin 20 (Vivascience) with a molecular weight cut off of 30K. The obtained concentrate was dialyzed against Sephadex G-25 (Amersham Biosciences, 358 mL) equilibrated with 50 mM HEPES (pH 7.5) containing 10 mM MgCl2, 2 mM Dithiothreitol, 10 mM Tripotassium Citrate and 0.3 M NaCl. The inner dialysate was concentrated with Vivaspin 20 (Vivascience) with molecular weight cut off of 30K, and concentrate was filtered through a 0.22 μm filter to give ACC1. The obtained ACC1 was cryopreserved at −80° C.
(3) Measurement of ACC1 Inhibitory Activity
ACC1 (0.93 mg/ml) obtained in the above-mentioned (2) was diluted with an enzyme reaction buffer (50 mM HEPES (pH 7.5), 10 mM MgCl2, 10 mM Tripotassium Citrate, 2 mM Dithiothreitol, 0.75 mg/ml Fatty acid free BSA) to a concentration of 8 μg/ml, and the mixture was added to each well of a 384 well assay plate (Nunc 265196) by 10 μl. A test compound was dissolved in dimethyl sulfoxide (DMSO) and the mixture was diluted with an enzyme reaction buffer and the resulting solution (5 μl) was added to each well. The mixture was incubated at 30° C. for 60 min. Then, a substrate solution (50 mM KHCO3, 200 μM ATP, 200 μM Acetyl-CoA, 5 μl) was added to each well, and the mixture was reacted at 30° C. for 20 min (test compound addition group). […]

Structures are written as SMILES.

T1 sequence (O00763 117-2458 limits assumed): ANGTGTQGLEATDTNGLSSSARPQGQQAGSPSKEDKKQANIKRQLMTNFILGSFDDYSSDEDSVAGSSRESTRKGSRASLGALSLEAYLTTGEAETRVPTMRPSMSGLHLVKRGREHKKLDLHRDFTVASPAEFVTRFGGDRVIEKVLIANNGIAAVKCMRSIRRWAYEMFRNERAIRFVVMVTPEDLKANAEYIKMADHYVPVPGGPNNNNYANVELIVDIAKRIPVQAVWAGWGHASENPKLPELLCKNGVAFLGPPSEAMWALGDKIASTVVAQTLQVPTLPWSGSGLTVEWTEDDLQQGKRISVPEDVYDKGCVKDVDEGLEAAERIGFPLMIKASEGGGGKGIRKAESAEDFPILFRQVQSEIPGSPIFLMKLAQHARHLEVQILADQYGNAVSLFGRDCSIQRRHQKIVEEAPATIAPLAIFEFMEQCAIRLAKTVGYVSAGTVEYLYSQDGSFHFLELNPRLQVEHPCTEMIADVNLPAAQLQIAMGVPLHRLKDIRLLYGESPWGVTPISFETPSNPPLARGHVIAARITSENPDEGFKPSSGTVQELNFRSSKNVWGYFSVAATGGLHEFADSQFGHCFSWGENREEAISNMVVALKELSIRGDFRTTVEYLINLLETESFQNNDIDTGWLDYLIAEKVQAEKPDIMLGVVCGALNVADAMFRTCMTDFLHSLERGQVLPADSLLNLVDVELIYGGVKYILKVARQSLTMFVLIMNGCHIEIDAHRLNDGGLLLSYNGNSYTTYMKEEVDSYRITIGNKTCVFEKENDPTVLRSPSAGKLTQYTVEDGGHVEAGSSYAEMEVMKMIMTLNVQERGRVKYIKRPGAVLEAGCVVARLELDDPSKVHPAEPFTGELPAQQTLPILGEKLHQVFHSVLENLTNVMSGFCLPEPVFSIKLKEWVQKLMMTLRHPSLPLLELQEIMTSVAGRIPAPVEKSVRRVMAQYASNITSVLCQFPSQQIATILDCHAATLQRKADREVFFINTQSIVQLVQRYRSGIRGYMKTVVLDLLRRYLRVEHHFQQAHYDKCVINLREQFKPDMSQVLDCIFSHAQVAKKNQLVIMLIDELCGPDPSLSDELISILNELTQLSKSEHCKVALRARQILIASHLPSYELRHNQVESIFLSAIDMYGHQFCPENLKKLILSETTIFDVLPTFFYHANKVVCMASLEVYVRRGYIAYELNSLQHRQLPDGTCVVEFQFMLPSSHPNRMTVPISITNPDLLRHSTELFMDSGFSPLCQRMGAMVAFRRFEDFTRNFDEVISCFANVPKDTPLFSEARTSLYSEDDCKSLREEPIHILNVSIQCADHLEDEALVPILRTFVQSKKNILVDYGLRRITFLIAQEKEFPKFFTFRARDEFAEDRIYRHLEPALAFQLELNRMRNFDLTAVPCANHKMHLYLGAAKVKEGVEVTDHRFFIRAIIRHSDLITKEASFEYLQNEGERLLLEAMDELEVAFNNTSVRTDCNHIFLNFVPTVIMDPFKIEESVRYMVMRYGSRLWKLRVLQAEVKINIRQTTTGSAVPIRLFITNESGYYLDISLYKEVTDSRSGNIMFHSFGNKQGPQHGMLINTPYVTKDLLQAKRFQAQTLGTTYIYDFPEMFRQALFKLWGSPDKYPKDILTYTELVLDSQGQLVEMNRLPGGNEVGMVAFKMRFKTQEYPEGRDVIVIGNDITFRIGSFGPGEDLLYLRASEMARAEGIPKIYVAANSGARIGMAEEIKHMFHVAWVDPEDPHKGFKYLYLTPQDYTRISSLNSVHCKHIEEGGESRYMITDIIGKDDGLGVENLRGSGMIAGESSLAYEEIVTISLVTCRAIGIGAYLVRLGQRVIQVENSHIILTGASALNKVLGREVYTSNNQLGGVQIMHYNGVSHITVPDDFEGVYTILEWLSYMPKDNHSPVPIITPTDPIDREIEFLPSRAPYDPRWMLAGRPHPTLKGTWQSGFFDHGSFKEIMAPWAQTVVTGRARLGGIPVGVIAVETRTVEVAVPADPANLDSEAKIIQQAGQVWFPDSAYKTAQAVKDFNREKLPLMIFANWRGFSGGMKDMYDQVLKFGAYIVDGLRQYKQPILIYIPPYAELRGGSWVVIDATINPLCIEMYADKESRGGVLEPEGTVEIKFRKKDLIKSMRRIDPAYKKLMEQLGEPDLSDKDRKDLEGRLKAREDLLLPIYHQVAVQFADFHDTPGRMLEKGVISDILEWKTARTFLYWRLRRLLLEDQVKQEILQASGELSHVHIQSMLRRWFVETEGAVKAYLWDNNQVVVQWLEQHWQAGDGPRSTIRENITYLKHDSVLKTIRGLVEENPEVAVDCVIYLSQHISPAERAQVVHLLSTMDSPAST

Consider `CC(=O)N[C@@H](C)[C@@H]1Cc2ccc(CCc3ccc(OCC4CC4)cc3)cc2O1.CC(=O)N[C@H](C)[C@H]1Cc2ccc(CCc3ccc(OCC4CC4)cc3)cc2O1` (mixture of isomers) [Example 130 (retention time longer), N-{(1R)-1-[(2R)-6-{2-[4-(cyclopropylmethoxy)phenyl]ethyl}-2,3-dihydro-1-benzofuran-2-yl]ethyl}acetamide and N-{(1S)-1-[(2S)-6-{2-[4-(cyclopropylmethoxy)phenyl]ethyl}-2,3-dihydro-1-benzofuran-2-yl]ethyl}acetamide], for which the “ACC2 10 μM inhibitory rate (%)” value at human ACC2 (Nd) was determined as 62%. Besides, on human ACC1, the “ACC1 10 μM inhibitory rate (%)” value worked out at 25%.

For the compound `CC(=O)N[C@@H](C)[C@@H]1Cc2ccc(C#Cc3ccc(OCC4CC4)cc3)cc2O1.CC(=O)N[C@H](C)[C@H]1Cc2ccc(C#Cc3ccc(OCC4CC4)cc3)cc2O1` (mixture of isomers) [Example 129 (retention time longer), N-{(1R)-1-[(2R)-6-{[4-(cyclopropylmethoxy)phenyl]ethynyl}-2,3-dihydro-1-benzofuran-2-yl]ethyl}acetamide and N-{(1S)-1-[(2S)-6-{[4-(cyclopropylmethoxy)phenyl]ethynyl}-2,3-dihydro-1-benzofuran-2-yl]ethyl}acetamide], the “ACC2 10 μM inhibitory rate (%)” value on human ACC2 (Nd) is recorded as 86%. In addition, the “ACC1 10 μM inhibitory rate (%)” value at human ACC1 is on record as 51%.

For `CCOc1ccc(CCc2ccc3cc(C(C)NC(C)=O)oc3c2)cc1` (stereo not shown) [Example 190 (retention time longer), N-(1-{6-[2-(4-ethoxyphenyl)ethyl]-1-benzofuran-2-yl}ethyl)acetamide], the results for the inhibition at 10 µM at human ACC2 (Nd) and on human ACC1 were 79% and 29%, respectively.

As for `CC(=O)NC(C)c1cc2ccc(CCc3ccc4c(c3)CCO4)cc2o1` (stereo not shown) [Example 94, N-(1-{6-[2-(2,3-dihydro-1-benzofuran-5-yl)ethyl]-1-benzofuran-2-yl}ethyl)acetamide], the inhibition at 10 µM on human ACC2 (Nd) was determined as 80%; on human ACC1, 19%.

On to `CC(=O)NC(C)C1Cc2cc(OCc3ccc(OCC4CC4)cc3F)ccc2O1` (stereo not shown) [Example 140, N-[1-(5-{[4-(cyclopropylmethoxy)-2-fluorobenzyl]oxy}-2,3-dihydro-1-benzofuran-2-yl)ethyl]acetamide], for which the “ACC2 10 μM inhibitory rate (%)” value at human ACC2 (Nd) is recorded as 66%. Besides, the “ACC1 10 μM inhibitory rate (%)” value on human ACC1 came out at 20%.

Consider `CC(=O)NC(C)c1cc2cc(OCc3ccc(OCC4CC4)cc3)ccc2o1` (stereo not shown) [Example 132 (retention time longer), N-[1-(5-{[4-(cyclopropylmethoxy)benzyl]oxy}-1-benzofuran-2-yl)ethyl]acetamide], for which the results for the inhibition at 10 µM on human ACC2 (Nd) and on human ACC1 were 91% and 46%, respectively.

With `CCOc1ccc(/C=C/c2ccc3cc(C(C)NC(C)=O)oc3c2)cc1` (stereo not shown) [Example 125, N-(1-{6-[(E)-2-(4-ethoxyphenyl)ethenyl]-1-benzofuran-2-yl}ethyl)acetamide], the inhibition at 10 µM is 83% on human ACC2 (Nd) and 33% on human ACC1.

As to `CCOc1ccc(CCc2cc3oc(C(C)NC(C)=O)cc3cn2)cc1` (stereo not shown) [Example 135, N-(1-{6-[2-(4-ethoxyphenyl)ethyl]furo[3,2-c]pyridin-2-yl}ethyl)acetamide], the values for the inhibition at 10 µM on human ACC2 (Nd) and on human ACC1 were 81% and 14%, respectively.

`CC(=O)NC(C)c1cc2ccc(CCc3ccc(OCC4CC4)cc3)cc2o1` (stereo not shown) [Example 150, N-[1-(6-{2-[4-(cyclopropylmethoxy)phenyl]ethyl}-1-benzofuran-2-yl)ethyl]acetamide]: the inhibition at 10 µM on human ACC2 (Nd) is 81%; on human ACC1, 27%.

Regarding `CC(=O)NC(C)c1coc2cc(OCc3ccc(OCC4CC4)nc3F)ccc12` (stereo not shown) [Example 164, N-[1-(6-{[6-(cyclopropylmethoxy)-2-fluoropyridin-3-yl]methoxy}-1-benzofuran-3-yl)ethyl]acetamide], the inhibition at 10 µM at human ACC2 (Nd) turned out to be 93%; at human ACC1, 50%.

As for `CC(=O)NC(C)c1cc2ccc(CCc3ccc(OC4CCCC4)cc3)cc2o1` (stereo not shown) [Example 170, N-[1-(6-{2-[4-(cyclopentyloxy)phenyl]ethyl}-1-benzofuran-2-yl)ethyl]acetamide], the values for the inhibition at 10 µM on human ACC2 (Nd) and on human ACC1 were 84% and 30%, respectively.

The values are drawn from patent US8501804B2, “Bicyclic compound” (Takeda Pharmaceutical Company Limited, priority 2008, dated 2013).
